# Experimental data from US6429227B1, “Hydroxyeicosatetraenoate salts, compositions and methods of use in treating dry eye disorders” (Alcon Universal Ltd., priority 1999, dated 2002).
# Columns and labels:
# Assay type in all cases: physicochemical
# [1] = Stability of neat 15(S)-HETE free acid vs sodium salt, four days under ambient air, HPLC (Example 6)
# Procedure: 15(S)-HETE free acid and 15(S)-HETE-sodium salt were stored under ambient air for four days and exposed to either a temperature of 40° C. in total darkness, or ambient temperature and 300 foot-candles of light (approximately Standard Fluorescent Room Light). Following the four day exposure, aliquots of the samples were analyzed by HPLC for percent remaining HETE and results are reported in Table 1: […]
# [2] = Stability of samples dried from ethanolic stock in amber glass vials at room temperature under ambient atmosphere, HPLC (Example 7); conditions: for % Remaining: dried film
# Text: Ethanolic stock solutions of 15(S)-HETE free acid and 15(S)-HETE free acid with an approximately equimolar amount of sodium hydroxide (to form the sodium salt in situ) were aliquoted to amber glass vials and dried under a stream of helium. The vials were stored at room temperature under ambient atmosphere. At various times, two vials of each were reconstituted with an aliquot of 50/50 acetonitrile/water and assayed by HPLC for 15(S)-HETE. The results are shown in Table 2 and illustrated in FIG. 1: […]
# [3] = Storage stability of 15(S)-HETE-sodium salt as neat solid or as solution in absolute ethanol, HPLC (Example 8)
# Procedure: 15(S)-HETE-sodium salt as the neat solid under argon or as solutions in absolute ethanol under ambient atmosphere were stored in amber glass vials in a −20° C. freezer or at room temperature. At various times, the samples were analyzed by HPLC for percent of initial 15(S)-HETE remaining.
smiles,measurement,setting,value
"CCCCC[C@H](O)/C=C/C=C\C/C=C\C/C=C\CCCC(=O)O [15(S)-HETE-free acid, 15(S)-HETE free acid, reference compound]",% of Initial Amount Remaining,"[1]; 40° C., dark",0%
same,% of Initial Amount Remaining,"[1]; ambient temp., 300 F-C light",2%
same,% Remaining,[2]; 0 hours,100%
same,% Remaining,[2]; 5 hours,4%
same,% Remaining,[2]; 24 hours,0%
same,% Remaining,[2]; 55 hours,0%
same,% Remaining,[2]; 72 hours,0%
"CCCCC[C@H](O)/C=C/C=C\C/C=C\C/C=C\CCCC(=O)[O-].[Na+] [15(S)-HETE-sodium salt, 5,8,11,13-Eicosatetraenoic acid, 15-hydroxy-[15S-(5Z,8Z,11Z,13E)]-sodium salt]",% of Initial Amount Remaining,"[1]; 40° C., dark",86%
same,% of Initial Amount Remaining,"[1]; ambient temp., 300 F-C light",58%
same,% of Initial,"[3]; 1 mg/mL in absolute ethanol, ambient atmosphere, room temp., 2.0 weeks",101%
same,% of Initial,"[3]; 1 mg/mL in absolute ethanol, ambient atmosphere, room temp., 4.4 weeks",101%
same,% of Initial,"[3]; 1 mg/mL in absolute ethanol, ambient atmosphere, room temp., 6.0 weeks",101%
same,% of Initial,"[3]; 1 mg/mL in absolute ethanol, ambient atmosphere, room temp., 8.4 weeks",101%
same,% of Initial,"[3]; 1 mg/mL in absolute ethanol, ambient atmosphere, −20° C. freezer, 2.0 weeks",102%
same,% of Initial,"[3]; 1 mg/mL in absolute ethanol, ambient atmosphere, −20° C. freezer, 4.4 weeks",102%
same,% of Initial,"[3]; 1 mg/mL in absolute ethanol, ambient atmosphere, −20° C. freezer, 6.0 weeks",101%
same,% of Initial,"[3]; 1 mg/mL in absolute ethanol, ambient atmosphere, −20° C. freezer, 8.4 weeks",101%
same,% of Initial,"[3]; 10 mg/mL in absolute ethanol, ambient atmosphere, room temp., 2.0 weeks",101%
same,% of Initial,"[3]; 10 mg/mL in absolute ethanol, ambient atmosphere, room temp., 4.4 weeks",101%
same,% of Initial,"[3]; 10 mg/mL in absolute ethanol, ambient atmosphere, room temp., 6.0 weeks",101%
same,% of Initial,"[3]; 10 mg/mL in absolute ethanol, ambient atmosphere, room temp., 8.4 weeks",100%
same,% of Initial,"[3]; 10 mg/mL in absolute ethanol, ambient atmosphere, −20° C. freezer, 2.0 weeks",101%
same,% of Initial,"[3]; 10 mg/mL in absolute ethanol, ambient atmosphere, −20° C. freezer, 4.4 weeks",102%
same,% of Initial,"[3]; 10 mg/mL in absolute ethanol, ambient atmosphere, −20° C. freezer, 6.0 weeks",101%
same,% of Initial,"[3]; 10 mg/mL in absolute ethanol, ambient atmosphere, −20° C. freezer, 8.4 weeks",101%
same,% of Initial,"[3]; solid under argon, room temp., 2.0 weeks",72%
same,% of Initial,"[3]; solid under argon, room temp., 4.4 weeks",61%
same,% of Initial,"[3]; solid under argon, room temp., 6.0 weeks",42%
same,% of Initial,"[3]; solid under argon, room temp., 8.4 weeks",28%
same,% of Initial,"[3]; solid under argon, −20° C. freezer, 2.0 weeks",99%
same,% of Initial,"[3]; solid under argon, −20° C. freezer, 4.4 weeks",97%
same,% of Initial,"[3]; solid under argon, −20° C. freezer, 6.0 weeks",95%
same,% of Initial,"[3]; solid under argon, −20° C. freezer, 8.4 weeks",92%
same,% Remaining,[2]; 0 hours,100%
same,% Remaining,[2]; 5 hours,94%
same,% Remaining,[2]; 24 hours,79%
same,% Remaining,[2]; 55 hours,66%
same,% Remaining,[2]; 72 hours,65%
same,stability relative to the corresponding free acid (in words),[2]; up to 72 hours,more stable than the corresponding free acid
